System: rabbit skeletal myofibrils (fast skeletal myofibrils)
Assay: Activation of fast skeletal myofibrils (PUMA assay, PK/LDH-coupled ATPase at pCa25)
Assay type: biochemical
Procedure, shortened: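 Detergent-washed rabbit psoas myofibrils (~90% fast fibres, calcium-regulated) assayed at calcium giving 25% of maximal ATPase rate (pCa25). ADP turnover coupled via pyruvate kinase/lactate dehydrogenase to NADH oxidation, read at 340 nm. Buffer 12 mM PIPES, 2 mM MgCl2, 1 mM DTT, pH 6.8; AC1.4 values derived.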

[1] = median AC1.4 class, procedure of Example 39
[2] = median AC1.4 reported as class, procedure of Example 39
[3] = AC1.4 determined according to the procedure of Example 39, reported as class symbols

Mean AC1.4 [1] | Mean AC1.4 [2] | SMILES | further results
D (D=>20 uM) |  | CS(=O)(=O)Nc1nccc(-c2ccc(NCC3(c4ncccc4F)CCC3)nn2)n1 [{4-[6-({[(3-fluoro(2-pyridyl))cyclobutyl]methyl}ami-no)pyridazin-3-yl]pyrimidin-2-yl}(methylsulfonyl)amine] | 
 | A (A=<1 uM) | CNC(=O)c1ccc(F)c(-c2ccc(NCC3(c4ncccc4F)CCC3)nn2)c1 [{4-fluoro-3-[6-({[(3-fluoro(2-pyridyl))cyclobutyl]methyl}ami-no)pyridazin-3-yl]phenyl}-N-methylcarboxamide] | 
A (A=<1 uM) |  | CS(=O)(=O)Nc1n[nH]c2ccc(-c3ccc(NC[C@]4(c5ncccc5F)C[C@H](F)C4)nn3)cc12 [{5-[6-({[3-fluoro-1-(3-fluoro(2-pyridyl))cyclobutyl]methyl}ami-no)pyridazin-3-yl](1H-indazol-3-yl)}(methylsulfonyl)amine] | 
 | B (B=1-10 uM) | CNC(=O)c1ccc(-c2ccc(NCC3(c4ncccc4F)CCC3)nn2)s1 [{5-[6-({[(3-fluoro(2-pyridyl))cyclobutyl]methyl}ami-no)pyridazin-3-yl](2-thienyl)}-N-methylcarboxamide] | 
D (D=>20 uM) |  | NCCn1nnc(-c2ccc(NCC3(c4ncccc4F)CCC3)nn2)n1 [{6-[2-(2-aminoethyl)(1,2,3,4-tetraazol-5-yl)]pyridazin-3-yl}{[(3-fluoro(2-pyridyl))cyclobutyl]methyl}amine] | 
C (C=10-20 uM) |  | NCc1ccc(F)cc1-c1ccc(NCC2(c3ncccc3F)CCC2)nn1 [{6-[2-(aminomethyl)-5-fluorophenyl]pyridazin-3-yl} {[(3-fluoro(2-pyridyl))cyclobutyl]methyl}amine] | 
D (D=>20 uM) |  | NCc1ccccc1-c1ccc(NCC2(c3ncccc3F)CCC2)nn1 [{6-[2-(aminomethyl)phenyl]pyridazin-3-yl}{[(3-fluoro(2-pyridyl))cyclobutyl]methyl}amine] | 
B (B=1-10 uM) |  | NCc1ccc(-c2ccc(NCC3(c4ncccc4F)CCC3)nn2)cc1 [{6-[4-(aminomethyl)phenyl]pyridazin-3-yl}{[(3-fluoro(2-pyridyl))cyclobutyl]methyl}amine] | 
B (B=1-10 uM) |  | NC(c1cnc(-c2ccc(NCC3(c4ncccc4F)CCC3)nn2)s1)C(F)(F)F (stereo not drawn) [{6-[5-(1-amino-2,2,2-trifluoroethyl)(1,3-thiazol-2-yl)]pyridazin-3-yl}{[(3-fluoro(2-pyridyl))cyclobutyl]methyl}amine] | 
D (D=>20 uM) |  | NC1(c2cnc(-c3ccc(NCC4(c5ncccc5F)CCC4)nn3)s2)COC1 [{6-[5-(3-aminooxetan-3-yl)(1,3-thiazol-2-yl)]pyridazin-3-yl}{[(3-fluoro(2-pyridyl))cyclobutyl]methyl}amine] | 
B (B=1-10 uM) |  | NCc1cnc(-c2ccc(NCC3(c4ncccc4F)CCC3)nn2)s1 [{6-[5-(aminomethyl)(1,3-thiazol-2-yl)]pyridazin-3-yl}{[(3-fluoro(2-pyridyl))cyclobutyl]methyl}amine] | 
 | D (D=>20 uM) | Fc1cccnc1[C@]1(CNc2ccc(-c3ccc(NC4CC4)nc3)nn2)C[C@@H](F)C1 [{6-[6-(cyclopropylamino)(3-pyridyl)]pyridazin-3-yl}{[3-fluoro-1-(3-fluoro(2-pyridyl))cyclobutyl]methyl}amine] | 
 | D (D=>20 uM) | COc1ncc(-c2ccc(NC[C@]3(c4ncccc4F)C[C@H](F)C3)nn2)cc1C [{[3-fluoro-1-(3-fluoro(2-pyridyl))cyclobutyl]methyl}[6-(6-methoxy-5-methyl(3-pyridyl))pyridazin-3-yl]amine] | 
A (A=<1 uM) |  | CNc1n[nH]c2ccc(-c3ccc(NC[C@]4(c5ncccc5F)C[C@H](F)C4)nn3)cc12 [{[3-fluoro-1-(3-fluoro(2-pyridyl))cyclobutyl]methyl}{6-[3-(methylamino)(1H-indazol-5-yl)]pyridazin-3-yl}amine] | 
 | B (B=1-10 uM) | CNc1ccc(-c2ccc(NC[C@]3(c4ncccc4F)C[C@H](F)C3)nn2)cn1 [{[3-fluoro-1-(3-fluoro(2-pyridyl))cyclobutyl]methyl}{6-[6-(methylamino)(3-pyridyl)]pyridazin-3-yl}amine] | 
B (B=1-10 uM) |  | Fc1cccnc1C1(CNc2ccc(-c3nccs3)nn2)CCC1 [{[(3-fluoro(2-pyridyl))cyclobutyl]methyl}(6-(1,3-thiazol-2-yl)pyridazin-3-yl)amine] | 
B (B=1-10 uM) |  | Fc1cccnc1C1(CNc2ccc(-c3nc4cccnc4s3)nn2)CCC1 [{[(3-fluoro(2-pyridyl))cyclobutyl]methyl}(6-(1,3-thiazolino[5,4-b]pyridin-2-yl)pyridazin-3-yl)amine] | 
B (B=1-10 uM) |  | Fc1cccnc1C1(CNc2ccc(-c3ccccn3)nn2)CCC1 [{[(3-fluoro(2-pyridyl))cyclobutyl]methyl}(6-(2-pyridyl)pyridazin-3-yl)amine] | 
D (D=>20 uM) |  | Fc1cccnc1C1(CNc2ccc(-c3nc4c(s3)CNC4)nn2)CCC1 [{[(3-fluoro(2-pyridyl))cyclobutyl]methyl}(6-(3-pyrrolino[3,4-d]1,3-thiazol-2-yl)pyridazin-3-yl)amine] | 
 | D (D=>20 uM) | Fc1cccnc1C1(CNc2ccc(-c3nc4c(s3)CNCC4)nn2)CCC1 [{[(3-fluoro(2-pyridyl))cyclobutyl]methyl}(6-(4,5,6,7-tetrahydro-1,3-thiazolo[5,4-c]pyridin-2-yl)pyridazin-3-yl)amine] | 
A (A=<1 uM) |  | Fc1cccnc1C1(CNc2ccc(-c3ccccc3)nn2)CCC1 [{[(3-fluoro(2-pyridyl))cyclobutyl]methyl}(6-phenylpyridazin-3-yl)amine] | 

Second part, the molecule before the results:

SMILES | Mean AC1.4 [1] | Mean AC1.4 [2] | further results
CN(C)C(=O)c1ccc(F)c(-c2ccc(NC[C@]3(c4ncccc4F)C[C@H](F)C3)nn2)c1 [{4-fluoro-3-[6-({[3-fluoro-1-(3-fluoro(2-pyridyl))cyclobutyl]methyl}ami-no)pyridazin-3-yl]phenyl}-N,N-dimethylcarboxamide] |  | B (B=1-10 uM) | 
CN1CC(NC(=O)c2ccc(F)c(-c3ccc(NC[C@]4(c5ncccc5F)C[C@H](F)C4)nn3)c2)C1 [{4-fluoro-3-[6-({[3-fluoro-1-(3-fluoro(2-pyridyl))cyclobutyl]methyl}ami-no)pyridazin-3-yl]phenyl}-N-(1-methylazetidin-3-yl)carboxamide] |  | B (B=1-10 uM) | 
O=C(NCC(F)(F)F)c1ccc(F)c(-c2ccc(NC[C@]3(c4ncccc4F)C[C@H](F)C3)nn2)c1 [{4-fluoro-3-[6-({[3-fluoro-1-(3-fluoro(2-pyridyl))cyclobutyl]methyl}ami-no)pyridazin-3-yl]phenyl}-N-(2,2,2-trifluoroethyl)carboxamide] |  | B (B=1-10 uM) | 
CC(C)NC(=O)c1ccc(F)c(-c2ccc(NC[C@]3(c4ncccc4F)C[C@H](F)C3)nn2)c1 [{4-fluoro-3-[6-({[3-fluoro-1-(3-fluoro(2-pyridyl))cyclobutyl]methyl}ami-no)pyridazin-3-yl]phenyl}-N-(methylethyl)carboxamide] | A (A=<1 uM) |  | 
CNC(=O)c1ccc(F)c(-c2ccc(NC[C@]3(c4ncccc4F)C[C@H](F)C3)nn2)c1 [{4-fluoro-3-[6-({[3-fluoro-1-(3-fluoro(2-pyridyl))cyclobutyl]methyl}ami-no)pyridazin-3-yl]phenyl}-N-methylcarboxamide] | A (A=<1 uM) |  | 
CNC(=O)c1cc(-c2ccc(NC[C@]3(c4ncccc4F)C[C@H](F)C3)nn2)c(F)cc1O [{4-fluoro-5-[6-({[3-fluoro-1-(3-fluoro(2-pyridyl))cyclobutyl]methyl}ami-no)pyridazin-3-yl]-2-hydroxyphenyl}-N-methylcarboxamide] |  | A (A=<1 uM) | 
CN(C)C(=O)c1cc(-c2ccc(NC[C@]3(c4ncccc4F)C[C@H](F)C3)nn2)ccc1O [{5-[6-({[3-fluoro-1-(3-fluoro(2-pyridyl))cyclobutyl]methyl}ami-no)pyridazin-3-yl]-2-hydroxyphenyl}-N,N-dimethylcarboxamide] |  | B (B=1-10 uM) | 
CNC(=O)c1cc(-c2ccc(NC[C@]3(c4ncccc4F)C[C@H](F)C3)nn2)ccc1O [{5-[6-({[3-fluoro-1-(3-fluoro(2-pyridyl))cyclobutyl]methyl}ami-no)pyridazin-3-yl]-2-hydroxyphenyl}-N-methylcarboxamide] |  | B (B=1-10 uM) | 
CNC(=O)c1cc2cc(-c3ccc(NC[C@]4(c5ncccc5F)C[C@H](F)C4)nn3)ccc2[nH]1 [{5-[6-({[3-fluoro-1-(3-fluoro(2-pyridyl))cyclobutyl]methyl}ami-no)pyridazin-3-yl]indol-2-yl}-N-methylcarboxamide] |  | A (A=<1 uM) | 
CC(C)(CNc1ccc(-c2cccc(CN)c2)nn1)c1ccc(F)cc1 [{6-[3-(aminomethyl)phenyl]pyridazin-3-yl}[2-(4-fluorophenyl)-2-methylpropyl]amine] |  |  | Mean AC1.4 [3]: B (B=1-10 uM)
CCNc1n[nH]c2ccc(-c3ccc(NCC(C)(C)c4ccc(F)cc4)nn3)cc12 [{6-[3-(ethylamino)(1H-indazol-5-yl)]pyridazin-3-yl}[2-(4-fluorophenyl)-2-methylpropyl]amine] |  |  | Mean AC1.4 [3]: A (A=<1 uM)
CCNc1n[nH]c2ccc(-c3ccc(NCC4(c5ccccn5)CCC4)nn3)cc12 [{6-[3-(ethylamino)(1H-indazol-5-yl)]pyridazin-3-yl}[(2-pyridylcyclobutyl)methyl]amine] |  |  | Mean AC1.4 [3]: A (A=<1 uM)
CCNc1n[nH]c2ccc(-c3ccc(NCC4(c5ncccc5F)CCC4)nn3)cc12 [{6-[3-(ethylamino)(1H-indazol-5-yl)]pyridazin-3-yl}{[(3-fluoro(2-pyridyl))cyclobutyl]methyl}amine] |  |  | Mean AC1.4 [3]: A (A=<1 uM)
CC(C)(CNc1ccc(-c2ccc(CN)nc2)nn1)c1ccc(F)cc1 [{6-[6-(aminomethyl)(3-pyridyl)]pyridazin-3-yl}[2-(4-fluorophenyl)-2-methylpropyl]amine] |  |  | Mean AC1.4 [3]: B (B=1-10 uM)
Nc1ncc(-c2ccc(NC[C@]3(c4ncccc4F)C[C@H](F)C3)nn2)cc1C(F)(F)F [{6-[6-amino-5-(trifluoromethyl)(3-pyridyl)]pyridazin-3-yl}{[3-fluoro-1-(3-fluoro(2-pyridyl))cyclobutyl]methyl}amine] |  | B (B=1-10 uM) | 

— US10076519B2 (CYTOKINETICS, INC., priority 2010, dated 2018)
